Assay: Kinetic solubility analysis (CLND: total chemiluminescent nitrogen determination)
Conditions: 1.0% DMSO, 24-hour incubation at ambient temperature, maximum theoretical concentration 100 μM; for pH 2 solubility: 0.1N HCl; for pH 7 solubility: 1×PBS buffer (pH 7.4)

Structure (SMILES)	pH 2 solubility	pH 7 solubility
CC(C)(C#Cc1ccc(-c2ccc(Cl)c3c(N(C(=O)N4CCC(N5CCCCC5)CC4)S(C)(=O)=O)nn(CC(F)(F)F)c23)c([C@H](Cc2cc(F)cc(F)c2)NC(=O)Cn2nc(C(F)(F)F)c3c2C(F)(F)[C@@H]2C[C@H]32)n1)S(C)(=O)=O [Compound 2, N-(4-chloro-7-(2-((S)-1-(2-((3bS,4aR)-5,5-difluoro-3-(trifluoromethyl)-3b,4,4a,5-tetrahydro-1H-cyclopropa[3,4]cyclopenta[1,2-c]pyrazol-1-yl)acetamido)-2-(3,5-difluorophenyl)ethyl)-6-(3-methyl-3-(methylsulfonyl)but-1-yn-1-yl)pyridin-3-yl)-1-(2,2,2-trifluoroethyl)-1H-indazol-3-yl)-N-(methylsulfonyl)-[1,4′-bipiperidine]-1′-carboxamide]	17 μM	1 μM
CN1CCN(C(=O)N(c2nn(CC(F)(F)F)c3c(-c4ccc(C#CC(C)(C)S(C)(=O)=O)nc4[C@H](Cc4cc(F)cc(F)c4)NC(=O)Cn4nc(C(F)(F)F)c5c4C(F)(F)[C@@H]4C[C@H]54)ccc(Cl)c23)S(C)(=O)=O)CC1 [Compound 1, N-(4-chloro-7-(2-((S)-1-(2-((3bS,4aR)-5,5-difluoro-3-(trifluoromethyl)-3b,4,4a,5-tetrahydro-1H-cyclopropa[3,4]cyclopenta[1,2-c]pyrazol-1-yl)acetamido)-2-(3,5-difluorophenyl)ethyl)-6-(3-methyl-3-(methylsulfonyl)but-1-yn-1-yl)pyridin-3-yl)-1-(2,2,2-trifluoroethyl)-1H-indazol-3-yl)-4-methyl-N-(methylsulfonyl)piperazine-1-carboxamide]	39 μM	1 μM
CC(C)(C#Cc1ccc(-c2ccc(Cl)c3c(N(C(=O)N4CCC[C@H]4CN)S(C)(=O)=O)nn(CC(F)(F)F)c23)c([C@H](Cc2cc(F)cc(F)c2)NC(=O)Cn2nc(C(F)(F)F)c3c2C(F)(F)[C@@H]2C[C@H]32)n1)S(C)(=O)=O [Compound 31, (S)-2-(aminomethyl)-N-(4-chloro-7-(2-((S)-1-(2-((3bS,4aR)-5,5-difluoro-3-(trifluoromethyl)-3b,4,4a,5-tetrahydro-1H-cyclopropa[3,4]cyclopenta[1,2-c]pyrazol-1-yl)acetamido)-2-(3,5-difluorophenyl)ethyl)-6-(3-methyl-3-(methylsulfonyl)but-1-yn-1-yl)pyridin-3-yl)-1-(2,2,2-trifluoroethyl)-1H-indazol-3-yl)-N-(methylsulfonyl)pyrrolidine-1-carboxamide]	61 μM	14 μM
CC(C)(C#Cc1ccc(-c2ccc(Cl)c3c(N(C(=O)C4CNC4)S(C)(=O)=O)nn(CC(F)(F)F)c23)c([C@H](Cc2cc(F)cc(F)c2)NC(=O)Cn2nc(C(F)(F)F)c3c2C(F)(F)[C@@H]2C[C@H]32)n1)S(C)(=O)=O [Compound 5, N-(4-chloro-7-(2-((S)-1-(2-((3bS,4aR)-5,5-difluoro-3-(trifluoromethyl)-3b,4,4a,5-tetrahydro-1H-cyclopropa[3,4]cyclopenta[1,2-c]pyrazol-1-yl)acetamido)-2-(3,5-difluorophenyl)ethyl)-6-(3-methyl-3-(methylsulfonyl)but-1-yn-1-yl)pyridin-3-yl)-1-(2,2,2-trifluoroethyl)-1H-indazol-3-yl)-N-(methylsulfonyl)azetidine-3-carboxamide]	34 μM	1 μM
CC(C)(C#Cc1ccc(-c2ccc(Cl)c3c(N(C(=O)[C@H]4C[C@H](N)C4)S(C)(=O)=O)nn(CC(F)(F)F)c23)c([C@H](Cc2cc(F)cc(F)c2)NC(=O)Cn2nc(C(F)(F)F)c3c2C(F)(F)[C@@H]2C[C@H]32)n1)S(C)(=O)=O [Compound 7, (trans)-3-amino-N-(4-chloro-7-(2-((S)-1-(2-((3bS,4aR)-5,5-difluoro-3-(trifluoromethyl)-3b,4,4a,5-tetrahydro-1H-cyclopropa[3,4]cyclopenta[1,2-c]pyrazol-1-yl)acetamido)-2-(3,5-difluorophenyl)ethyl)-6-(3-methyl-3-(methylsulfonyl)but-1-yn-1-yl)pyridin-3-yl)-1-(2,2,2-trifluoroethyl)-1H-indazol-3-yl)-N-(methylsulfonyl)cyclobutane-1-carboxamide]	70 μM	1 μM
CC(C)(C#Cc1ccc(-c2ccc(Cl)c3c(N(C(=O)C4CN(C(=N)N)C4)S(C)(=O)=O)nn(CC(F)(F)F)c23)c([C@H](Cc2cc(F)cc(F)c2)NC(=O)Cn2nc(C(F)(F)F)c3c2C(F)(F)[C@@H]2C[C@H]32)n1)S(C)(=O)=O [Compound 6, 1-carbamimidoyl-N-(4-chloro-7-(2-((S)-1-(2-((3bS,4aR)-5,5-difluoro-3-(trifluoromethyl)-3b,4,4a,5-tetrahydro-1H-cyclopropa[3,4]cyclopenta[1,2-c]pyrazol-1-yl)acetamido)-2-(3,5-difluorophenyl)ethyl)-6-(3-methyl-3-(methylsulfonyl)but-1-yn-1-yl)pyridin-3-yl)-1-(2,2,2-trifluoroethyl)-1H-indazol-3-yl)-N-(methylsulfonyl)azetidine-3-carboxamide]	15 μM	9 μM
CC(C)(C#Cc1ccc(-c2ccc(Cl)c3c(N(C(=O)[C@H]4C[C@H](NC(=O)C(=O)O)C4)S(C)(=O)=O)nn(CC(F)(F)F)c23)c([C@H](Cc2cc(F)cc(F)c2)NC(=O)Cn2nc(C(F)(F)F)c3c2C(F)(F)[C@@H]2C[C@H]32)n1)S(C)(=O)=O [Compound 8]	<1/1 μM	<1/1 μM
CC(C)(C#Cc1ccc(-c2ccc(Cl)c3c(N(C(=O)N4CCC(C(=O)O)CC4)S(C)(=O)=O)nn(CC(F)(F)F)c23)c([C@H](Cc2cc(F)cc(F)c2)NC(=O)Cn2nc(C(F)(F)F)c3c2C(F)(F)[C@@H]2C[C@H]32)n1)S(C)(=O)=O [Compound 25, 1-((4-chloro-7-(2-((S)-1-(2-((3bS,4aR)-5,5-difluoro-3-(trifluoromethyl)-3b,4,4a,5-tetrahydro-1H-cyclopropa[3,4]cyclopenta[1,2-c]pyrazol-1-yl)acetamido)-2-(3,5-difluorophenyl)ethyl)-6-(3-methyl-3-(methylsulfonyl)but-1-yn-1-yl)pyridin-3-yl)-1-(2,2,2-trifluoroethyl)-1H-indazol-3-yl)(methylsulfonyl)carbamoyl)piperidine-4-carboxylic acid]	1 μM	19 μM
CC(C)(C#Cc1ccc(-c2ccc(Cl)c3c(N(C(=O)[C@H]4C[C@H]4C(=O)O)S(C)(=O)=O)nn(CC(F)(F)F)c23)c([C@H](Cc2cc(F)cc(F)c2)NC(=O)Cn2nc(C(F)(F)F)c3c2C(F)(F)[C@@H]2C[C@H]32)n1)S(C)(=O)=O [Compound 17, (1R,2S)-2-((4-chloro-7-(2-((S)-1-(2-((3bS,4aR)-5,5-difluoro-3-(trifluoromethyl)-3b,4,4a,5-tetrahydro-1H-cyclopropa[3,4]cyclopenta[1,2-c]pyrazol-1-yl)acetamido)-2-(3,5-difluorophenyl)ethyl)-6-(3-methyl-3-(methylsulfonyl)but-1-yn-1-yl)pyridin-3-yl)-1-(2,2,2-trifluoroethyl)-1H-indazol-3-yl)(methylsulfonyl)carbamoyl)cyclopropane-1-carboxylic acid]	3/3 μM	3/3 μM
